Data on eight compounds can be found in doi:10.1101/2025.10.20.683482v1 (biorxiv, 2025).

Assay [1] concerns 4T1. Description: cells. To be noted: Mus musculus, 4T1, 72 h, read-out: 4T1.
The subject of assay [2] is BxPC3. Description: cells. Particulars: Homo sapiens, BXPC-3, 72 h, read-out: BxPC3.
In assay [3] the test system is MDA-MB 231. As to the kind of experiment: cells. Particulars: Homo sapiens, MDA-MB-231, 72 h, read-out: MDA-MB 231.
Assay [4] concerns MIA PaCa. Description: cells. Particulars: Homo sapiens, MIA PaCa-2, 72 h, read-out: MIA PaCa.
Assay [5] relates to 67nR. As to the kind of experiment: cells. Particulars: 72 h, read-out: 67nR.
For assay [6], the target named is Human recombinant Methionine Aminopeptidase 2 (MetAp2) (Homo sapiens, UniProt P50579). As to the kind of experiment: fluorometric H-Met-AMC hydrolysis. The format is biochemical.
Human recombinant Methionine Aminopeptidase 2 (MetAp2), sequence (P50579 2-478): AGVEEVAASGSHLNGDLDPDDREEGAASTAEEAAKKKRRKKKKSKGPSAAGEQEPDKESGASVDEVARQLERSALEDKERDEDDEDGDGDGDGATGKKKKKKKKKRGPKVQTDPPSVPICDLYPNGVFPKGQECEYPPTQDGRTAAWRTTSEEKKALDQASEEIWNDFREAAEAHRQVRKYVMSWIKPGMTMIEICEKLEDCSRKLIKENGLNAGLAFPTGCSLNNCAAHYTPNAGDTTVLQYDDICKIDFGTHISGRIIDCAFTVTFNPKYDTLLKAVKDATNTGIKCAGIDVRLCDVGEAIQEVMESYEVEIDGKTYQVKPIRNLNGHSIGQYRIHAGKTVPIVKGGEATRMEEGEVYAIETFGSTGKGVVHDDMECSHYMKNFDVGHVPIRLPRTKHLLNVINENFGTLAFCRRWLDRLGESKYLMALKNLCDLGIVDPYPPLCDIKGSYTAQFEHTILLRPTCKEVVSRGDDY

`O=[N+]([O-])c1ccc(O)c2ncccc12` [compound 1, 5-nitroquinolin-8-ol]: the IC50 was found to be 4.67 ± 1.13 µM in assay [1]; 13.9 ± 1.77 µM in assay [2]; 20.4 ± 1.22 µM in assay [3]; 11.5 ± 2.06 µM in assay [4]; 16.8 ± 2.74 µM in assay [5].

As to `CC(C)(C)[Si](Oc1ccc([N+](=O)[O-])c2cccnc12)(c1ccccc1)c1ccccc1` [compound 4], the IC50 turned out to be 4.6 ± 2.41 µM in assay [1]; 12.8 ± 1.09 µM in assay [2]; 15.9 ± 1.47 µM in assay [3]; 10.4 ± 1.56 µM in assay [4]; 3.42 µM in assay [6]; 15.6 ± 2.21 µM in assay [5].

In the case of `CC(C)(C)[Si](C)(C)Oc1ccc([N+](=O)[O-])c2cccnc12` [compound 2], the IC50 in assay [1] was 4.92 ± 1.63 µM; in assay [2], 15.2 ± 2.01 µM; in assay [3], 19.2 ± 1.52 µM; in assay [4], 10.4 ± 2.26 µM; in assay [6], 4.3 µM; in assay [5], 23.3 ± 1.5 µM.

In the case of `O=[N+]([O-])c1ccc(OCOCc2ccccc2)c2ncccc12` [compound 9], the IC50 in assay [1] is 25.4 ± 3.1 µM; in assay [2], 44.1 ± 2.09 µM; in assay [3], over 100 µM; in assay [4] it was 60.2 ± 1.52 µM; in assay [6], 92.1 µM.

Take `CS(=O)(=O)Oc1ccc([N+](=O)[O-])c2cccnc12` [compound 5]: the IC50 in assay [1] turned out to be 4.22 ± 0.32 µM; in assay [2] it was 25.6 ± 3.35 µM; in assay [3], 13.1 ± 1.96 µM; in assay [4], 13.8 ± 0.85 µM; in assay [5], 25.2 ± 1.96 µM.

For the compound `O=[N+]([O-])c1ccc(OS(=O)(=O)C(F)(F)F)c2ncccc12` [compound 6], the IC50 in assay [1] was 4.13 ± 1.17 µM; in assay [2] it was 11.7 ± 1.64 µM; in assay [3], 13.8 ± 2.98 µM; in assay [4], 9.63 ± 2.35 µM; in assay [6] it was over 100 µM; in assay [5], 10.3 ± 1.45 µM.

For `CC(C)[Si](Oc1ccc([N+](=O)[O-])c2cccnc12)(C(C)C)C(C)C` [compound 3], the IC50 in assay [1] worked out at 2.76 ± 0.21 µM; in assay [2] it was 16.7 ± 1.73 µM; in assay [3], 17.3 ± 1.07 µM; in assay [4], 9.71 ± 2.96 µM; in assay [6] it was 2.86 µM; in assay [5], 14.4 ± 2.97 µM.

With `C[Si](C)(C)CCOCOc1ccc([N+](=O)[O-])c2cccnc12` [compound 7], the IC50 worked out at 2.43 ± 1.05 µM in assay [1]; 18.1 ± 2.86 µM in assay [2]; 34.7 ± 2.17 µM in assay [3]; 28.2 ± 3.35 µM in assay [4]; 21.1 µM in assay [6].
